Measurements reported in patent publication US11530186B2, “Inhibitors for the β-catenin / T-cell factor protein-protein interaction” (H. LEE MOFFITT CANCER CENTER AND RESEARCH INSTITUTE, INC., priority 2018, dated 2022).
Read-outs that look alike come from different tables or passages of the source.

Target: T1, β-catenin/Tcf protein-protein interaction (Homo sapiens, UniProt P35222)
T1 construct: Wild-type β-catenin (residues 138-781) were cloned into a pET-28b vector; 6×histidine (C); made in house; host or cells: E. coli BL21 DE3
T1 sequence (P35222 138-781): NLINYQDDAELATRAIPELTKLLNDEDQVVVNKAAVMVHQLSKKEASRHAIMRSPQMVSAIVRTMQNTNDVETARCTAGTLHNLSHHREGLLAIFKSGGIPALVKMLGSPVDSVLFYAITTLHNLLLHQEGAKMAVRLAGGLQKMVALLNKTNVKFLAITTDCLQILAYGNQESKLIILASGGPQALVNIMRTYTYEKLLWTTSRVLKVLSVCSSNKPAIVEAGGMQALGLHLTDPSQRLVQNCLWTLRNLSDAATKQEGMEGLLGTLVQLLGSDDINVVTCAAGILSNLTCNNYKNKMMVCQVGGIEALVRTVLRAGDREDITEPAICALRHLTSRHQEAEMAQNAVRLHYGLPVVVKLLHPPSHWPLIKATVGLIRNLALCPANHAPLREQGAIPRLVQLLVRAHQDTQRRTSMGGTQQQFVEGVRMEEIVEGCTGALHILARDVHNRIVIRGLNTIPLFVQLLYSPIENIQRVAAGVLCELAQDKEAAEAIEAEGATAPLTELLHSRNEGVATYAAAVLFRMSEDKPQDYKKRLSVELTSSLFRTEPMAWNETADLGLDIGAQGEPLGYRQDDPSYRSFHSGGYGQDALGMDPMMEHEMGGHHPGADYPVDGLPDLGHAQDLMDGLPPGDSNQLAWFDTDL
Experiment: FP competitive inhibition assay
Type: binding
Procedure: Protein Expression and Purification. Wild-type β-catenin (residues 138-781) were cloned into a pET-28b vector carrying a C-terminal 6×histidine (Novagen) and transformed into E. coli BL21 DE3 (Novagen). Cells were cultured in LB medium with 30 μg/mL kanamycin until the OD600 was approximately 0.8, and then protein expression was induced with 400 μM of IPTG at 20° C. overnight. Cells were lysed by sonication. The proteins were purified by Ni-NTA affinity chromatography (30210, Qiagen) and dialyzed against a buffer containing 20 mM of Tris (pH 8.8), 100 mM NaCl, 10% glycerol, and 3 mM DTT. The purity of β-catenin was set to >95% as determined by SDS-PAGE gel analysis. Native non-denaturing gel electrophoresis experiment and the thermal-shift assay on an iCycler iQ Real Time Detection System (Bio-Rad) were performed for each purified protein. In the thermal shift assay, protein unfolding was evaluated through measuring the fluorescence changes of fluorescent dye Sypro Orange with purified β-catenin proteins. A temperature increment of 1° C./min was applied to monitor protein stability and detect protein aggregation. CD spectra were measured on a J-815 spectropolarimeter (Jasco). All spectra were recorded using a 1 mm path-length quartz cell. The CD spectra were averaged over three scans, and the wavelength was scanned from 260 to 190 nm in step of 1 nm. All spectra were recorded at room temperature, and the baseline was corrected by subtracting the CD spectra of a blank control containing all of the substances except protein. Samples were prepared at a concentration around 1-5 μM in a buffer of 10 mM potassium phosphate and 100 mM potassium fluoride at pH 7.0 to ensure that the transmission of light through the sample was not restricted. All proteins were stable, and no aggregation was observed under storage or assay conditions. Proteins were aliquoted and stored at −80° C. C-terminally fluorescein-labeled human Tcf4 (residues 7-51) was synthesized and HPLC purified with purity >95%. The structures were validated by LC/MS (liquid chromatography/mass spectrometry).
FP Assays. The procedures for the FP competitive inhibition assays have been described previously (Zhang, M.; Huang, Z.; Yu, B.; Ji, H. New homogeneous high-throughput assays for inhibitors of β-catenin/Tcf protein-protein interactions Anal. Biochem. 2012, 424, 57-63; Zhang, M.; Catrow, J. L.; Ji, H. High-throughput selectivity assays for small-molecule inhibitors of β-catenin/T-cell factor protein-protein interactions. ACS Med. Chem. Lett. 2013, 4, 306-311). Briefly, all of the tested compounds were prepared as 10 mM DMSO stocks. In the primary screen, the concentrations of the compounds and DMSO were set to 50 μM and 1% (v/v). Only the compounds which FP signal decreases were greater than 50% in the single-point β-catenin/Tcf assay were evaluated by counter screen. […] In the FP competitive inhibition assay, 10 nM human β-catenin and 2.5 nM of C-terminally fluorescein-labeled human Tcf4 were incubated in an assay buffer of 137 mM NaCl, 2.7 mM KCl, 10 mM Na2HPO4, 2 mM KH2PO4, 100 μg/mL of bovine γ-globulin, and 0.01% Triton-X100 for 15 min at 4° C. Bovine γ-globulin and Triton-X100 were included in the assay buffer to decrease the likelihood of compound acting by aggregate formation. Different concentrations of the tested compounds in the assay buffer were added to each test plate to make a final volume of 100 μL. Each assay plate was covered black and gently mixed on an orbital shaker at 4° C. for 1.5 h to reach equilibrium before the polarization values were read. The IC50 value was determined by nonlinear least-square analysis of GraphPad Prism 5.0. The Ki values were derived (Nikolovska-Coleska, Z.; Wang, R.; Fang, X.; Pan, H.; Tomita, Y.; Li, P.; Roller, P. P.; Krajewski, K.; Saito, N. G.; Stuckey, J. A.; Wang, S. Development and optimization of a binding assay for the XIAP BIR3 domain using fluorescence polarization. Anal. Biochem. 2004, 332, 261-273). […]

[1] = Assay 1, mean ± SD (n = 3), read-out: Ki ± SD, Assay 1
[2] = Assay 2, mean ± SD (n = 3), read-out: Ki ± SD, Assay 2

Row | Ki [1] | Ki [2] | Ki (Assay 3, mean ± SD (n = 3), read-out: Ki ± SD, Assay 3) | Ki (Assay 4, mean ± SD (n = 3), read-out: Ki ± SD, Assay 4) | Compound
1 | 32 ± 3.9 µM | – | – | – | Cc1ccc(CCc2cn(CCc3nn[nH]n3)c3ccc(C(=O)O)cc23)nc1 [Compound 17, 1-(2-(2H-tetrazol-5-yl)ethyl)-3-(2-(5-methylpyridin-2-yl)ethyl)-1H-indole-5-carboxylic acid]
2 | 19 ± 2.8 µM | – | – | – | O=C(O)CCn1c(CCc2nc3ccccc3s2)c(CCc2ccc(F)cc2)c2cc(C(=O)O)ccc21 [Compound 38, 2-(2-(benzo[d]thiazol-2-yl)ethyl)-1-(2-carboxyethyl)-3-(4-fluorophenethyl)-1H-indole-5-carboxylic acid]
3 | 27 ± 4 µM | – | – | – | Cc1ccc(CCc2cn(CCc3nn[nH]n3)c3ccc(C(=O)O)cc23)cc1 [Compound 7, 1-(2-(2H-tetrazol-5-yl)ethyl)-3-(4-methylphenethyl)-1H-indole-5-carboxylic acid]
4 | 11 ± 3.9 µM | 4.1 ± 0.88 µM | – | – | O=C(O)c1ccc2c(c1)c(CCc1ccccc1)c(CCc1nc3ccccc3s1)n2CCc1nn[nH]n1 [Compound 25, 1-(2-(2H-tetrazol-5-yl)ethyl)-2-(2-(benzo[d]thiazol-2-yl)ethyl)-3-phenethyl-1H-indole-5-carboxylic acid]
5 | 6.5 ± 1 µM | – | – | – | O=C(O)c1ccc2c(c1)c(CCc1ccc3ccccc3c1)cn2CCc1nn[nH]n1 [Compound 13, 1-(2-(2H-tetrazol-5-yl)ethyl)-3-(2-(naphthalen-2-yl)ethyl)-1H-indole-5-carboxylic acid]
6 | 27 ± 4 µM | 12 ± 2.2 µM | – | – | O=C(O)c1ccc2c(c1)c(CCc1cccc(Cl)c1)cn2CCc1nn[nH]n1 [Compound 11, 1-(2-(2H-tetrazol-5-yl)ethyl)-3-(3-chlorophenethyl)-1H-indole-5-carboxylic acid]
7 | 3.1 ± 0.068 µM | 15 ± 2.8 µM | – | – | O=C(NCc1ccon1)c1ccc2c(c1)c(CCC1CCCCC1)c(-c1ccsc1)n2CCc1nn[nH]n1 [Compound 95, 1-(2-(2H-tetrazol-5-yl)ethyl)-3-(2-cyclohexylethyl)-N-(isoxazol-3-ylmethyl)-2-(thiophen-3-yl)-1H-indole-5-carboxamide]
8 | 11 ± 1.8 µM | 5.2 ± 1.7 µM | – | – | O=C(O)c1ccc2c(c1)c(CCc1ccc(Cl)cc1)c(CCc1nc3ccccc3[nH]1)n2CCc1nn[nH]n1 [Compound 29, 2-(2-(1H-benzo[d]imidazol-2-yl)ethyl)-1-(2-(2H-tetrazol-5-yl)ethyl)-3-(4-chlorophenethyl)-1H-indole-5-carboxylic acid]
9 | 1.5 ± 0.17 µM | 2.6 ± 0.59 µM | – | – | COc1ccc2sc(CCc3c(CCc4ccc(Cl)cc4)c4cc(C(=O)NCc5ccccc5Br)ccc4n3CCc3nn[nH]n3)nc2c1 [Compound 52, 1-(2-(2H-tetrazol-5-yl)ethyl)-N-(2-bromobenzyl)-3-(4-chlorophenethyl)-2-(2-(5-methoxybenzo[d]thiazol-2-yl)ethyl)-1H-indole-5-carboxamide]
10 | 1 ± 0.076 µM | – | – | – | COc1ccc2nc(C#Cc3c(CCc4ccc(C)cc4)c4cc(C(=O)O)ccc4n3CCc3nn[nH]n3)sc2c1 [Compound 73, 1-(2-(2H-tetrazol-5-yl)ethyl)-2-((6-methoxybenzo[d]thiazol-2-yl)ethynyl)-3-(4-methylphenethyl)-1H-indole-5-carboxylic acid]
11 | 2 ± 0.4 µM | 4.1 ± 0.6 µM | 4.1 ± 1.2 µM | 1.6 ± 0.12 µM | COc1ccc2sc(CCc3c(CCc4ccc(Cl)cc4)c4cc(C(=O)O)ccc4n3CCc3nn[nH]n3)nc2c1 [Compound 31, 1-(2-(2H-tetrazol-5-yl)ethyl)-3-(4-chlorophenethyl)-2-(2-(5-methoxybenzo[d]thiazol-2-yl)ethyl)-1H-indole-5-carboxylic acid]
12 | 16 ± 0.71 µM | ~24 µM | – | – | Cc1ccc(CCc2c(-c3ccsc3)n(CCc3nn[nH]n3)c3ccc(C(N)=O)cc23)cc1 [Compound 88, 1-(2-(2H-tetrazol-5-yl)ethyl)-3-(4-methylphenethyl)-2-(thiophen-3-yl)-1H-indole-5-carboxamide]
13 | 6.7 ± 1.1 µM | 2.7 ± 0.54 µM | – | – | O=C(O)c1ccc2c(c1)c(CCc1ccc(F)cc1)c(CCc1nc3ccccc3s1)n2CCc1nn[nH]n1 [Compound 26, 1-(2-(2H-tetrazol-5-yl)ethyl)-2-(2-(benzo[d]thiazol-2-yl)ethyl)-3-(4-fluorophenethyl)-1H-indole-5-carboxylic acid]
14 | 2.7 ± 0.34 µM | 6.1 ± 1.2 µM | – | – | COc1ccc2sc(CCc3c(CCc4ccc(Cl)cc4)c4cc(C(=O)NCc5cccc(Cl)c5)ccc4n3CCc3nn[nH]n3)nc2c1 [Compound 53, 1-(2-(2H-tetrazol-5-yl)ethyl)-N-(3-chlorobenzyl)-3-(4-chlorophenethyl)-2-(2-(5-methoxybenzo[d]thiazol-2-yl)ethyl)-1H-indole-5-carboxamide]
15 | 22 ± 3.1 µM | – | – | – | O=C(O)c1ccc2c(c1)c(CCc1ccc(OC(F)(F)F)cc1)cn2CCc1nn[nH]n1 [Compound 10, 1-(2-(2H-tetrazol-5-yl)ethyl)-3-(4-(trifluoromethoxy)phenethyl)-1H-indole-5-carboxylic acid]
16 | 250 ± 1.2 µM | – | – | – | Cc1c(C)n(CCc2nn[nH]n2)c2ccccc12 [Compound 3, 1-(2-(2H-tetrazol-5-yl)ethyl)-2,3-dimethyl-1H-indole]
17 | 36 ± 9.5 µM | 10 ± 2.2 µM | – | – | O=C(O)CCn1c(CCc2nc3ccccc3[nH]2)c(CCc2ccc(Cl)cc2)c2cc(C(=O)O)ccc21 [Compound 41, 2-(2-(1H-benzo[d]imidazol-2-yl)ethyl)-1-(2-carboxyethyl)-3-(4-chlorophenethyl)-1H-indole-5-carboxylic acid]
18 | 18 ± 1.6 µM | 18 ± 0.67 µM | – | – | O=C(O)c1ccc2c(c1)c(CCc1ccncc1)cn2CCc1nn[nH]n1 [Compound 16, 1-(2-(2H-tetrazol-5-yl)ethyl)-3-(2-(pyridin-4-yl)ethyl)-1H-indole-5-carboxylic acid]
19 | 5.8 ± 1.3 µM | – | – | – | Cc1ccc(CCc2c(CCc3nc4ccccc4s3)n(CCC(=O)O)c3ccc(C(=O)O)cc23)cc1 [Compound 40, 2-(2-(benzo[d]thiazol-2-yl)ethyl)-1-(2-carboxyethyl)-3-(4-methylphenethyl)-1H-indole-5-carboxylic acid]
20 | 7.9 ± 1.5 µM | 1.4 ± 0.45 µM | – | – | O=C(O)CCn1c(CCc2nc3ccccc3s2)c(CCc2ccc(Cl)cc2)c2cc(C(=O)O)ccc21 [Compound 39, 2-(2-(benzo[d]thiazol-2-yl)ethyl)-1-(2-carboxyethyl)-3-(4-chlorophenethyl)-1H-indole-5-carboxylic acid]
